From patent US10793561B2, “1,8-naphthyridinone compounds and uses thereof” (NUVATION BIO INC., priority 2017, dated 2020)

Legend:
adenosine A2B receptor = adenosine A2B receptor (Homo sapiens (Human), UniProt P29275); assay: Radioligand binding competition assay, adenosine A2B receptor (HEK-293-A2b cell membranes); conditions: 300 nM compound
Procedure: (§1) Binding of selected compounds to the adenosine A1, A2A, A2B, and A3 receptors was tested using a binding competition assay.
(§2) The general protocol for the radioligand binding competition assay was as follows. Competition binding was performed in duplicate in the wells of a 96 well plate (Master Block, Greiner, 786201) containing binding buffer (optimized for each receptor), membrane extracts (amount of protein/well optimized for each receptor), radiotracer (final concentration optimized for each receptor), and test compound. Nonspecific binding was determined by co-incubation with 200-fold excess of cold competitor. The samples were incubated in a final volume of 0.1 mL at 25° C. for 60 minutes and then filtered over filter plates. Filters were washed six times with 0.5 mL of ice-cold washing buffer (optimized for each receptor) and 50 μL of Microscint 20 (Packard) were added on each filter. The filter plates were sealed, incubated 15 min on an orbital shaker and scintillation counted with a TopCount for 30 sec/filter.
Similarly, the following reagents were used for the adenosine A2B radioligand binding competition assay: HEK-293-A2b cell membranes, 20 μg/well, preincubated 30 min at RT with […] Adenosine Deaminase; a binding buffer comprising HEPES 10 mM pH7.4, EDTA 1 mM, 0.5% BSA; a wash buffer comprising HEPES 10 mM pH7.4, EDTA 1 mM; a Unifilter GF/C—treated for 2 h with 0.5% PEI; and 10 nM ^3H-DPCPX as the tracer.
(§3) CHO-K1-A3 cell membranes, 1.5 μg/well; a binding buffer comprising HEPES 25 mM pH 7.4, MgCl2 5 mM, CaCl2 1 mM, 0.5% BSA; a wash buffer comprising HEPES 25 mM pH 7.4, MgCl2 5 mM, CaCl2 1 mM; a Unifilter GF/C—treated for 2 h with 0.5% BS; and 0.4 nM of ^125I-AB-MECA as the tracer. The results of the binding assay are shown in Table B1-1 and are shown as percent residual binding at a given concentration. Percent of residual binding means binding of a compound in the presence of competitor normalized to the amount of binding in the absence of competitor. […] For example, compound 1 strongly bound to A2A (30% residual binding at a concentration of 100 nM), A1 (−3% residual binding at 300 nM) and A2B, (−9% residual binding at 300 nM) but weakly bound to A3 (96% residual binding at 300 nM).

adenosine A3 receptor = adenosine A3 receptor (Homo sapiens (Human), UniProt P0DMS8); assay: Radioligand binding competition assay, adenosine A3 receptor (CHO-K1-A3 cell membranes); conditions: 300 nM compound
adenosine A3 receptor, sequence (P0DMS8 whole entry): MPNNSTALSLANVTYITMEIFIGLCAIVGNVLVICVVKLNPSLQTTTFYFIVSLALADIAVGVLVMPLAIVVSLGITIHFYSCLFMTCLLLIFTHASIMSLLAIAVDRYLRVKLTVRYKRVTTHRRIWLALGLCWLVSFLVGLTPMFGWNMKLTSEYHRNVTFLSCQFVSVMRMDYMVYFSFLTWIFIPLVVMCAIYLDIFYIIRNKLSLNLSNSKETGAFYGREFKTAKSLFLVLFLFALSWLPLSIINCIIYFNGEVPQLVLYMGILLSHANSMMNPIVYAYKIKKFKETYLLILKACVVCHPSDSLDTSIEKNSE
Procedure: as §1, §2
For the adenosine A3 radioligand binding competition assay, the following reagents were used:
as §3

adenosine A2A receptor [1] = biological target: T1, adenosine A2A receptor (Homo sapiens (Human), UniProt P29274); assay: Radioligand binding competition assay, adenosine A2A receptor; conditions: for A2A radioligand binding competition assay % residual binding @ 100 nM: 100 nM compound; for A2A radioligand binding competition assay % residual binding @ 300 nM: 300 nM compound; for A2A radioligand binding competition assay % residual binding @ 1000 nM: 1000 nM compound; for A2A radioligand binding competition assay % residual binding @ 3000 nM: 3000 nM compound
T1 sequence (P29274 whole entry): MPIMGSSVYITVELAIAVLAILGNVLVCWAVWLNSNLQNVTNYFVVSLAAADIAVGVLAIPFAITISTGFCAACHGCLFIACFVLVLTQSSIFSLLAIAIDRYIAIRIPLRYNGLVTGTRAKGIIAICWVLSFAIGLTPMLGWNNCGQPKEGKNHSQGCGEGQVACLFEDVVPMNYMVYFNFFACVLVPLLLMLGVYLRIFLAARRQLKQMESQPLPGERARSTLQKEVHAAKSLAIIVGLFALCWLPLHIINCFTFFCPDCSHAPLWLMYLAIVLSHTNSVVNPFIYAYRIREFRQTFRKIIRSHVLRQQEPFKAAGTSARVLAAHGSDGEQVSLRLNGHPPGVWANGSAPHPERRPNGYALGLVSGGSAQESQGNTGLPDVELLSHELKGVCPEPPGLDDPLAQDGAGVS
Procedure: as §1, §2
For the adenosine A2A receptor radioligand binding assay, the following modifications were made to the general protocol. GF/C filters (Perkin Elmer, 6005174), presoaked in 0.01% Brij for 2 h at room temperature were used. Filters were washed six times with 0.5 mL of ice-cold washing buffer (50 mM Tris pH 7.4) and 50 μL of Microscint 20 (Packard) was added in each well. The plates were then incubated for 15 min on an orbital shaker and then counted with a TopCount™ for 1 min/well.
Another radioligand binding assay was used to evaluate the binding affinity for the adenosine A2A receptor assay was performed in duplicate in the wells of a 384 plate. Assay buffer contained DPBS 500 mM, MgCl2 0.1 mM, and 1% DMSO. Membrane-bead suspension was prepared by mixing 25.98 μL of human adenosine A2A membrane preparation (Perkin Elmer, RBHA2AM400UA) at 33.4 pg/mL, 28 μL of ADA at 20 pg/mL, and 932 μL of SPA beads at 3.33 mg/mL) and incubated the mixture for 20 min at room temperature. Mixed 20 μL of radiotracer (^3H-SCH 58261) at 15 nM to each well containing test articles at various concentrations and centrifuge the plate at 1000 rpm for 1 minute. Added 30 μL of the membrane-bead suspension to each well. Sealed the plates and incubated for 1 hr at room temperature with vigorous mixing on a plate mixer. Plates were read on Microbeta^2 (Perkin Elmer, 2450-0010).
as §3

adenosine A2A receptor [2] = biological target: T1, adenosine A2A receptor; assay: cAMP assay in HEK-293 cells expressing human recombinant adenosine A2A receptor; assay type: cell-based; conditions: for inhibition at 0.1 µM: HEK293, 100 nM compound, read-out: A2a cAMP % inh @ 100 nM
Procedure: The functional activity of compounds was tested using one of the two assays to detect the present of cAMP. Activation of G-protein coupled receptors (such as A2A) results in activation of adenylcyclase which converts ATP into cAMP which is used as a downstream signaling molecule. Therefore, molecules which act as GPCR (or specifically A2A receptor) antagonists cause a decrease in intracellular cAMP concentration.
Both assays used HEK-293 cells expressing human recombinant adenosine A2A receptor were grown prior to the test in media without antibiotic. Assay 1: The cells were detached by gentle flushing with PBS-EDTA (5 mM EDTA), recovered by centrifugation and suspended in assay buffer (KRH: 5 mM KCl, 1.25 mM MgSO4, 124 mM NaCl, 25 mM HEPES, 13.3 mM Glucose, 1.25 mM KH2PO4, 1.45 mM CaCl2, 0.5 g/L BSA, supplemented with Rolipram).
12 μL of cells were mixed with 6 μL of the test compound at increasing concentrations and then incubated for 10 min. Thereafter 6 μL of the reference agonist was added at a final concentration corresponding to the historical EC80. The plates were then incubated for 30 min at room temperature. After addition of the lysis buffer and 1 hour incubation, cAMP concentrations were estimated, according to the manufacturer specification, with the HTRF® kit.
Assay 2: 100 nL of test articles at 100× of final concentration were transferred to assay plate by Echo. Cells were washed twice with 5 mL of PBS […]. After aspirating the PBS and adding 1.5 mL versine, cells were incubated at 37° C. for 2-5 min. After centrifugation, 4 mL of medium was added and adjusted cell density to 5,000 cells/well with stimulation buffer. 10 μL of cells were aliquoted to the assay plate, centrifuged at 1000 rpm for 1 minute, and incubated for 60 minutes at room temperature. 5 μL 4× Eu-cAMP tracer solution and 5 μL 4× Ulight™-anti-cAMP solution were added to assay plate, followed by centrifugation and 60-minute incubation at room temperature. Plates were read on EnVision.

adenosine A1 receptor = adenosine A1 receptor (Homo sapiens (Human), UniProt P30542); assay: Radioligand binding competition assay, adenosine A1 receptor (CHO-K1-A1 cell membranes); conditions: 300 nM compound
adenosine A1 receptor, sequence (P30542 whole entry): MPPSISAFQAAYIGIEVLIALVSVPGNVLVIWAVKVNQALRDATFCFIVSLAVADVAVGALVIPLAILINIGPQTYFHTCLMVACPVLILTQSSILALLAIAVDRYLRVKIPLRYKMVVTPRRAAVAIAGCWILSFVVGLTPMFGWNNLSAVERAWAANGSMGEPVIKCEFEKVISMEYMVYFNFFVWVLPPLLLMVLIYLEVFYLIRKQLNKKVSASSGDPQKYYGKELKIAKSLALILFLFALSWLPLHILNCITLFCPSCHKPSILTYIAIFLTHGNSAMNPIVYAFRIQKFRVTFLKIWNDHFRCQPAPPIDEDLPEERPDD
Procedure: as §1, §2
For the adenosine A1 radioligand binding competition assay, a similar procedure was used except that the following reagents were used: CHO-K1-A1 cell membranes; binding buffer comprising HEPES 25 mM pH 7.4, MgCl2 5 mM, CaCl2 1 mM, NaCl 100 mM, saponin 10 µg/mL; wash buffer comprising HEPES 25 mM pH 7.4, MgCl2 5 mM, CaCl2 1 mM, NaCl 100 mM; Unifilter GF/B—treated for 2 h with 0.5% PEI was the filter; and 1.6 nM of ^3H-DPCPX was the tracer.
as §3

adenosine A2B receptor, sequence (P29275 whole entry): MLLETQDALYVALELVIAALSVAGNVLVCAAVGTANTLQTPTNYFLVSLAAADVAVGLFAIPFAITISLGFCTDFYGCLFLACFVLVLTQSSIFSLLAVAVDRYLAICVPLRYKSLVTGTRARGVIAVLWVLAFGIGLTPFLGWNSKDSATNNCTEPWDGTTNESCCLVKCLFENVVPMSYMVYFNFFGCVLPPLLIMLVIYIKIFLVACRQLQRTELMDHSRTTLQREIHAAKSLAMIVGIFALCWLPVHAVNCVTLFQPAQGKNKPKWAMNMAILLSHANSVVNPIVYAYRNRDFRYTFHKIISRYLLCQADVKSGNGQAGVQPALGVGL

SMILES: O=c1cc[nH]c2nc(-c3ccccc3)c(-c3ccc4[nH]cnc4c3)cc12 [Compound No. 1.7, 6-(1H-benzo[d]imidazol-5-yl)-7-phenyl-1,8-naphthyridin-4(1H)-one]
- Radioligand binding competition assay % residual binding @ 300 nM (A2b) (adenosine A2B receptor): 0%
- Radioligand binding competition assay % residual binding @ 300 nM (A3) (adenosine A3 receptor): 84%
- A2A radioligand binding competition assay % residual binding @ 100 nM (adenosine A2A receptor [1]): 52%
- A2A radioligand binding competition assay % residual binding @ 300 nM (adenosine A2A receptor [1]): 33%
- A2A radioligand binding competition assay % residual binding @ 1000 nM (adenosine A2A receptor [1]): 21%
- A2A radioligand binding competition assay % residual binding @ 3000 nM (adenosine A2A receptor [1]): 18%
- inhibition at 0.1 µM (adenosine A2A receptor [2]): 81%
- Radioligand binding competition assay % residual binding @ 300 nM (A1) (adenosine A1 receptor): 7%

SMILES: O=c1cc[nH]c2nc(-c3ccco3)c(-c3ccc4ncccc4c3)cc12 [Compound No. 1.14, 7-(furan-2-yl)-6-(quinolin-6-yl)-1,8-naphthyridin-4(1H)-one]
- Radioligand binding competition assay % residual binding @ 300 nM (A2b) (adenosine A2B receptor): 0%
- Radioligand binding competition assay % residual binding @ 300 nM (A3) (adenosine A3 receptor): 87%
- IC50 (adenosine A2A receptor [1]): 33 nM
- A2A radioligand binding competition assay % residual binding @ 3000 nM (adenosine A2A receptor [1]): 5/ND/ND/ND %
- inhibition at 0.1 µM (adenosine A2A receptor [2]): 94%
- Radioligand binding competition assay % residual binding @ 300 nM (A1) (adenosine A1 receptor): 13%

SMILES: O=c1cc[nH]c2nc(-c3ccccc3)c(-c3ccc4ncccc4c3)cc12 [1.5, 7-phenyl-6-(quinolin-6-yl)-1,8-naphthyridin-4(1H)-one]
- Radioligand binding competition assay % residual binding @ 300 nM (A2b) (adenosine A2B receptor): 2%
- Radioligand binding competition assay % residual binding @ 300 nM (A3) (adenosine A3 receptor): 104%
- IC50 (adenosine A2A receptor [1]): 181 nM
- A2A radioligand binding competition assay % residual binding @ 100 nM (adenosine A2A receptor [1]): 74%
- A2A radioligand binding competition assay % residual binding @ 300 nM (adenosine A2A receptor [1]): 38%
- A2A radioligand binding competition assay % residual binding @ 1000 nM (adenosine A2A receptor [1]): 12%
- A2A radioligand binding competition assay % residual binding @ 3000 nM (adenosine A2A receptor [1]): 22%
- IC50 (adenosine A2A receptor [2]; first cAMP table): 23 nM
- Radioligand binding competition assay % residual binding @ 300 nM (A1) (adenosine A1 receptor): 11%
